Test systems include ACHN renal; HCT-15 colon; HL-60(TB) leukemia; HOP-92 NSCLC; LOX IMVI melanoma; MCF7 breast; MDA-MB-435; NCI-H23 lung; NCI/ADR-RES ovarian; RXF 393 renal.
Common to all, as to assay: inhibition of tumour cell growth, NCI panel, 48 h

Each structure is given as a SMILES string.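 Following 48 hours of exposure in 96-well plates, responses at five concentrations were used to interpolate endpoints linearly. GI50 = concentration required for 50% inhibition of growth. The concentration for full growth arrest is given as TGI.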

On to `COc1cc(C2NC(=O)C(C#N)=C(Nc3cccc(C)c3)S2)ccc1O` (stereo not given), for which the GI50 with ACHN renal, with HCT-15 colon, in the assay with HL-60(TB) leukemia, in the assay on HOP-92 NSCLC, with LOX IMVI melanoma and in the assay on MCF7 breast was over 100 µM in each case. Also, the GI50 in the assay on MDA-MB-435, in the assay with NCI-H23 lung, in the assay with NCI/ADR-RES ovarian and in the assay on RXF 393 renal was over 100 µM throughout. For the same molecule, the TGI with ACHN renal, in the assay with HCT-15 colon, with HL-60(TB) leukemia, in the assay with HOP-92 NSCLC, with LOX IMVI melanoma and in the assay on MCF7 breast was over 100 µM in each case. In addition, the TGI in the assay on MDA-MB-435, with NCI-H23 lung, with NCI/ADR-RES ovarian and in the assay with RXF 393 renal was over 100 µM throughout.

For the origin of these results see PubChem BioAssay (NCI).
